Results reported in patent US8772494B2, “N-aryl piperidine substituted biphenylcarboxamides as inhibitors of apolipoprotein b” (Janssen Pharmaceutica N.V., priority 2003, dated 2014).

How the values were obtained:
[1] = test system: ApoB secretion, HepG2 cells; assay: Quantification of the secretion of ApoB; format: cell-based; conditions: Homo sapiens, 24 hours of incubation, secreted apoB immunoprecipitated, read-out: pIC50 values (= −log IC50 value) (converted)
Description: HepG2 cells were cultured in 24-well plates in MEM Rega 3 containing 10% fetal calf serum. At 70% confluency, the medium was changed and the test compound or carrier (DMSO, 0.4% final concentration) was added. After 24 hours of incubation, the medium was transferred to Eppendorf tubes and cleared by centrifugation. A sheep antibody directed against either apoB was added to the supernatant and the mixture was kept at 8° C. for 24 hours. Then, rabbit anti-sheep antibody was added and the immune complex was allowed to precipitate for 24 hours at 8° C. The immunoprecipitate was pelleted by centrifugation for 25 minutes at 1320 g and washed twice with a buffer containing 40 mM Mops, 40 mM NaH2PO4, 100 mM NaF, 0.2 mM DTT, 5 mM EDTA, 5 mM EGTA, 1% Triton-X-100, 0.5% sodium deoxycholate (DOC), 0.1% SDS, 0.2 μM leupeptin and 0.2 μM PMSF. Radioactivity in the pellet was quantified by liquid scintillation counting.
Resulting IC50 values are enumerated in Table C.1. When the calculated IC50 was below 6, not enough data points were available at the tested concentrations to calculate an IC50 value.

MTP = MTP (Homo sapiens, UniProt P55157); assay: MTP assay (triglyceride transfer from donor to acceptor vesicles); format: biochemical; conditions: MTP activity, percent triglyceride transfer, 37° C.; read-out: pIC50 values (= −log IC50 value) (converted)
Description: MTP activity was measured using an assay similar to one described by J. R. Wetterau and D. B. Zilversmit in Chemistry and Physics of Lipids, 38, 205-222 (1985). To prepare the donor and acceptor vesicles, the appropriate lipids in chloroform were put into a glass test tube and dried under a stream of N2. A buffer containing 15 mM Tris-HCl pH 7.5, 1 mM EDTA, 40 mM NaCl, 0.02% NaN3 (assay buffer) was added to the dried lipid. The mixture was vortexed briefly and the lipids were then allowed to hydrate for 20 min on ice. Vesicles were then prepared by bath sonication (Branson 2200) at room temperature for maximum 15 min. Butylated hydroxytoluene was included in all vesicle preparations at a concentration of 0.1%. The lipid transfer assay mixture contained donor vesicles (40 nmol phosphatidylcholine, 7.5 mol % of cardiolipin and 0.25 mol % glycerol tri [1-^14C]-oleate), acceptor vesicles (240 nmol phosphatidylcholine) and 5 mg BSA in a total volume of 675 μl in a 1.5 ml microcentrifuge tube. Test compounds were added dissolved in DMSO (0.13% final concentration). After 5 minutes of pre-incubation at 37° C., the reaction was started by the addition of MTP in 100 μl dialysis buffer. The reaction was stopped by the addition of 400 μl DEAE-52 cellulose pre-equilibrated in 15 mM Tris-HCl pH 7.5, 1 mM EDTA, 0.02% NaN3 (1:1, vol/vol). The mixture was agitated for 4 min and centrifuged for 2 min at maximum speed in an Eppendorf centrifuge (4° C.) to pellet the DEAE-52-bound donor vesicles. An aliquot of the supernatant containing the acceptor liposomes was counted and the [^14C]-counts were used to calculate the percent triglyceride transfer from donor to acceptor vesicles.
Resulting IC50 values are enumerated in Table C.2. When the calculated IC50 was below 7, not enough data points were available at the tested concentrations to calculate an IC50 value.

Chain of MTP (P55157 19-894, species assumed): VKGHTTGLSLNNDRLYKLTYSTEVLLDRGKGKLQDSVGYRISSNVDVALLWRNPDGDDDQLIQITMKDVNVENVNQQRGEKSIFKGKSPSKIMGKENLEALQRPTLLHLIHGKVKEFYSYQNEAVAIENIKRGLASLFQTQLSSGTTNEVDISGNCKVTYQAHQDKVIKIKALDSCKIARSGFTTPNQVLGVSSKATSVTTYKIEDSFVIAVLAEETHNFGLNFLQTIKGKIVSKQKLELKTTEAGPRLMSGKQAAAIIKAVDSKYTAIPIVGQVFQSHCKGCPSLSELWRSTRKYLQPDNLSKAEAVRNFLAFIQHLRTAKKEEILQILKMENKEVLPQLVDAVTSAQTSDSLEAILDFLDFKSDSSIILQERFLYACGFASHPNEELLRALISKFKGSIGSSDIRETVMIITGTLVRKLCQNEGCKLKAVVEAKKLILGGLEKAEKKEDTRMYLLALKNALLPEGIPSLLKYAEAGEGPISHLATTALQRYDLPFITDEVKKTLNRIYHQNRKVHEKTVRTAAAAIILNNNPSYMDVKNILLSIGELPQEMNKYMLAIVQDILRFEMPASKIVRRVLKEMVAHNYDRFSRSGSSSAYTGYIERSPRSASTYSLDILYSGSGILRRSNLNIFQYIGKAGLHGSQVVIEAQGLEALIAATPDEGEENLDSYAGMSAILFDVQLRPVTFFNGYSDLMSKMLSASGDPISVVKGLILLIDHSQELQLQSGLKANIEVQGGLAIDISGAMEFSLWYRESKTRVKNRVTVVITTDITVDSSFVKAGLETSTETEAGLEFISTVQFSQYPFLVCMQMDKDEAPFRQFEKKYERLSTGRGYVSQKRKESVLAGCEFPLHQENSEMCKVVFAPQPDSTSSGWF
Chain of MTP (P07237 18-508 partner, species assumed): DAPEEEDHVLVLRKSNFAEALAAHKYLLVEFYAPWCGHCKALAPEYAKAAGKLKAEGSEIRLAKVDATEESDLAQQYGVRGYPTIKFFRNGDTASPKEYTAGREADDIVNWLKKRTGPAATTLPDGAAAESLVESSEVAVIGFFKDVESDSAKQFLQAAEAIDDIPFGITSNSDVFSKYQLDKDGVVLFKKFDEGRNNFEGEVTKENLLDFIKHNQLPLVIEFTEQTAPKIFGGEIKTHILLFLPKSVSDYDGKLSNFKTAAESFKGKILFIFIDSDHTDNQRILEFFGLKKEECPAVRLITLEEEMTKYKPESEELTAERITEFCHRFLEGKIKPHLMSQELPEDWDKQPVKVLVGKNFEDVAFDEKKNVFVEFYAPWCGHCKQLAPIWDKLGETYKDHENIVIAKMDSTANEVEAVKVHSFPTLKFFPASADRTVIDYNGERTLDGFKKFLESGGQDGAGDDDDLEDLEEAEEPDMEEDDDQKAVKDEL

Row | IC50 [1] | IC50 (MTP) | Compound
1 | 21.1 nM | 1.7 nM | COC(=O)[C@@H](C)NC(=O)CC1CCN(c2ccc(NC(=O)c3cccc(C)c3-c3ccc(C(F)(F)F)cc3)cc2)CC1 [Compound 44]
2 | 17.3 nM | 9.1 nM | CCNC(=O)[C@H](C)NC(=O)CC1CCN(c2ccc(NC(=O)c3cccc(C)c3-c3ccc(C(F)(F)F)cc3)cc2)CC1 [Compound 49]
3 | 15.5 nM | 6.04 nM | CCNC(=O)COC(=O)CC1CCN(c2ccc(NC(=O)c3cccc(C)c3-c3ccc(C(F)(F)F)cc3)cc2)CC1 [Compound 51]
4 | 74 nM | 3 nM | CCOC(=O)CC[C@@H](NC(=O)CC1CCN(c2ccc(NC(=O)c3cccc(C)c3-c3ccc(C(F)(F)F)cc3)cc2)CC1)C(=O)OCC [Compound 52]
5 | 126 nM | 15.7 nM | COC(=O)[C@H](Cc1c[nH]c2ccccc12)NC(=O)CC1CCN(c2ccc(NC(=O)c3cccc(C)c3-c3ccc(C(F)(F)F)cc3)cc2)CC1 [Compound 53]
6 | 488 nM | 3.11 nM | COC(=O)CCC(NC(=O)CC1CCN(c2ccc(NC(=O)c3cccc(C)c3-c3ccc(C(F)(F)F)cc3)cc2)CC1)C(=O)OC (centres unmarked) [Compound 54]
7 | 6.03 nM | 1.62 nM | COC(=O)CCNC(=O)CC1CCN(c2ccc(NC(=O)c3cccc(C)c3-c3ccc(C(F)(F)F)cc3)cc2)CC1 [Compound 55]
